In patent US5756107A, “Formulations and methods for reducing skin irritation” (Cosmederm Technologies, priority 1994, dated 1998):
“Also recorded” adds a separate entry of the source. Structures can show the parent of a compound that is named as a salt.

How the values were obtained:
[1] = tested on: subject's skin (skin irritation caused by lactic acid); test: Lactic acid skin irritation challenge, double-blind randomized vehicle-controlled clinical trial (cumulative sensory irritation); type: in vivo, human; conditions: for Percent Inhibition (average inhibition of cumulative irritation): cation salts at 250 mM, average over clinical tests of over 550 subjects, 7.5% lactic acid challenge; for anti-irritant activity (in words): clinical trials, topical; for Percent Inhibition: representative subject panels, cation concentrations of 250 mM, vehicle 10% EtOH
Procedure: The trials were conducted in a double blind, randomized, vehicle-controlled manner. Various formulations of the invention were tested in over 550 people.
Controls were performed by applying a corresponding formulation without any added cation to a contralateral portion of the subject's skin.
The following scaled scores were used for sensory assessment:
Cumulative irritation data are set forth in the following tables, and are depicted in FIGS. 9 and 10.

skin irritation = test: Inhibition of skin irritation by salts in Elizabeth Arden Visible Difference Refining Toner; type: in vivo; conditions: topical solution in Elizabeth Arden Visible Difference Refining Toner, various amounts
Procedure: Cation salts of the invention were formulated at various concentrations in various commercially available topical cosmetic products.
Topical solution forms of potassium nitrate, potassium chloride, potassium citrate, lithium sulfate, lithium nitrate and lithium acetate were prepared by combining various amounts of the named salts with Elizabeth Arden Visible Difference Refining Toner (an alcohol-containing solution).

tooth sensitivity = conditions: dentifrice, two to six weeks of continuous use; cited from earlier work
exposed tooth nerves = conditions: cited from earlier work
sodium channels = conditions: cell membranes; cited from earlier work
[2] = cited from earlier work
[3] = in vivo, po; cited from earlier work
brains of test animals = conditions: applied directly to the brains of test animals; cited from earlier work
exposed tooth pulp = exposed tooth pulp vs dentin; cited from earlier work

Row | SMILES | Percent Inhibition (average inhibition of cumulative irritation) [1] [%] | anti-irritant activity (in words) [1] | Percent Inhibition [1] [%] | inhibition of skin irritation (in words) (skin irritation) | also measured
1 | CC(=O)O [Lithium acetate] | 70 | particularly active as anti-irritants | 67 | effective to inhibit skin irritation | 
2 | O=C(O)O [Lithium carbonate, lithium carbonate] |  | particularly active as anti-irritants | 69 |  | 
3 | [Cl-].[Li+] [Lithium chloride] | 0 |  | 6 |  | 
4 | O=[N+]([O-])[O-].[Li+] [Lithium nitrate] | 20 | particularly active as anti-irritants | 16 | effective to inhibit skin irritation | 
5 | O=S(=O)([O-])[O-].[Li+].[Li+] [Lithium sulfate] | 35 | overall efficacy of the subject formulations is evident; also recorded: particularly active as anti-irritants | 39 | effective to inhibit skin irritation | Percent Inhibition (cumulative irritation, dose-response) ([1]; 31 mM): 2%; Percent Inhibition (cumulative irritation, dose-response) ([1]; 62 mM): -7%; Percent Inhibition (cumulative irritation, dose-response) ([1]; 125 mM): 16%; Percent Inhibition (cumulative irritation, dose-response) ([1]; 250 mM): 27%; Percent Inhibition (cumulative irritation, dose-response) ([1]; 500 mM): 30%
6 | [Cl-].[K+] [Potassium chloride] | 40 | overall efficacy of the subject formulations is evident; also recorded: particularly active as anti-irritants | 38 | effective to inhibit skin irritation | 
7 | O=C([O-])[C@H](O)[C@@H](O)[C@H](O)[C@H](O)CO.[K+] [Potassium gluconate] | 25 | particularly active as anti-irritants | 25 |  | 
8 | O=[N+]([O-])[O-].[K+] [Potassium nitrate] | 30 | particularly active as anti-irritants | 29 | effective to inhibit skin irritation | Percent Inhibition (cumulative irritation, dose-response) ([1]; 31 mM): -3%; Percent Inhibition (cumulative irritation, dose-response) ([1]; 125 mM): 18%; Percent Inhibition (cumulative irritation, dose-response) ([1]; 250 mM): 29%; Percent Inhibition (cumulative irritation, dose-response) ([1]; 500 mM): 60%; tooth sensitivity (tooth sensitivity): reduce tooth sensitivity
9 | O=C(O)C(=O)O [Potassium oxalate, potassium oxalate] |  | particularly active as anti-irritants | 30 |  | 
10 | O=S(=O)([O-])[O-].[K+].[K+] [Potassium sulfate] | 15 |  | 27 |  | 
11 | [Ca+2] [calcium] |  |  |  |  | nerve electrical responses (exposed tooth nerves): may suppress nerve electrical responses
12 | [Li+] [lithium (Li^+), lithium] |  | effective, when applied topically to the skin in appropriate concentrations and vehicles, to suppress the relatively severe stinging, burning, tingling, itching and/or erythema |  |  | anti-irritant efficacy, effect of glycerol in the vehicle ([1]; preliminary studies, low concentration, vehicle includes glycerol): increased if the vehicle includes glycerol; block of sodium channels (sodium channels): block sodium channels on cell membranes
13 | O=S(=O)([O-])[O-].[Mg+2] [magnesium sulfate] |  |  |  |  | anesthesia or analgesia ([2]; intravenous): produces neither anesthesia nor even analgesia in humans
14 | [Mg+2] [magnesium] |  |  |  |  | paralysis or depressed neural activity [3]: does not result in paralysis or depressed neural activity in healthy individuals; neural or synaptic activity (brains of test animals): depressed neural or synaptic activity, and even a sleep-like state; paralysis of skeletal muscles ([2]; magnesium ion, intravenously-administered magnesium sulfate): induces paralysis of skeletal muscles; nerve electrical responses (exposed tooth nerves): may suppress nerve electrical responses
15 | [K+] [potassium (K^+), potassium] |  | effective, when applied topically to the skin in appropriate concentrations and vehicles, to suppress the relatively severe stinging, burning, tingling, itching and/or erythema |  |  | pain on application to tooth pulp or dentin (exposed tooth pulp): pain is induced when potassium ion is applied to exposed tooth pulp but not when applied to the dentin; nerve electrical responses (exposed tooth nerves): evokes a transient electrical response followed by inhibition of excitability
16 | O=C([O-])CC(O)(CC(=O)[O-])C(=O)[O-].[K+].[K+].[K+] [potassium citrate] |  |  |  | effective to inhibit skin irritation | 
17 | [Cl-].[Cl-].[Sr+2] [strontium chloride, reference compound] |  |  |  |  | tooth sensitivity (tooth sensitivity): reduce tooth sensitivity
